# In patent US12220419B2, “BCL-2 inhibitors” (Newave Pharmaceutical Inc., priority 2018, dated 2025):
# Experiments:
# [1] = tested on: small-cell lung cancer xenograft; conditions: oral administration, alone; cited from earlier work
# SCLC H146 cell line = conditions: read-out: IC50 against SCLC H146 cell line; cited from earlier work
# [2] = tested on: acute lymphoblastic leukemia xenograft; conditions: oral administration, alone; cited from earlier work
# Bcl-w = Bcl-w (Homo sapiens (Human), UniProt Q92843); conditions: cited from earlier work
# H345 xenograft = conditions: 100 mg/kg/day, H345 xenograft model; cited from earlier work
# circulating platelets = conditions: clinical trial, single agent; cited from earlier work
# Mcl-1 = Mcl-1 (Homo sapiens (Human), UniProt Q07820); conditions: cited from earlier work
# RS4;11 cells = conditions: cited from earlier work
# CLL = conditions: average, read-out: average EC50, apoptosis in CLL; cited from earlier work
# RS4; 11 xenografts = conditions: single dose of 100 mg/kg; cited from earlier work
# [3] = cited from earlier work
# [4] = in vivo; cited from earlier work
# BCL-2 = BCL-2 (Homo sapiens (Human), UniProt P10415); test: BCL-2 competition binding (fluorescence polarization) assay; conditions: fluorescein-labeled BH3 peptide 15 nM, purified BCL-2 protein 30 nM, 3 hours incubation at room temperature; read-out: BCL2 IC50
# Method: Biological Example 1: BCL-2 Competition Binding (Fluorescence Polarization) Assay
# The fluorescence-labeled 23 amino acid peptide BH3 was purchased from CalBiochem ([…]). […] This binding assay was performed in 96-well plate and with each assay contained 15 and 30 nM of labeled peptide and purified BCL-2 protein (purchased from R&D Systems, Inc). The assay buffer contained 20 mM Hepes (pH 7.0), 50 mM KCl, 5 mM MgCl2, 20 mM Na2MoO4, 0.1 mg/ml Bovine Gamma Globulin and 0.01% NP40. Compounds were diluted in DMSO and added to the final assay with concentration range from 20 μM to 2 nM. The polarization degree (mP) value was determined by BioTek Synergy II with background subtraction after 3 hours of incubation at room temperature. IC50 was calculated using Prism software with sigmoidal dose-response curve fitting. ABT-737 was used as reference compound. Such assays, carried out with a range of doses of test compounds, allowed the determination of an approximate IC50 value.
# [5] = tested on: BCL-2-dependent acute lymphoblastic leukemia (ALL) cell line RS4;11; test: In vitro anti-proliferation assay (ATPlite luminescence) in RS4;11; type: cell-based; conditions: RS4;11 cells, about 72 hours, medium with 5% FBS or 10% normal human serum
# Method: Cell antiproliferation was assayed by PerkinElmer ATPlite™ Luminescence Assay System. Briefly, the various test cancer cell lines were plated at a density of about 1×10^4 cells per well in Costar 96-well plates, and were incubated with different concentrations of compounds for about 72 hours in medium supplemented with 5% FBS or 10% normal human serum (NHS). One lyophilized substrate solution vial was then reconstituted by adding 5 mL of substrate buffer solution, and was agitated gently until the solution was homogeneous. About 50 μL of mammalian cell lysis solution was added to 100 μL of cell suspension per well of a microplate, and the plate was shaken for about five minutes in an orbital shaker at 700 rpm. This procedure was used to lyse the cells and to stabilize the ATP. Next, 50 μL substrate solution was added to the wells and microplate was shaken for five minutes in an orbital shaker at 700 rpm. Finally, the luminescence was measured by a PerkinElmer TopCount® Microplate Scintillation Counter. Such assays, carried out with a range of doses of test compounds, allowed the determination of the cellular anti-antiproliferative IC50 of the compounds of the present invention.
# Sequence of Bcl-w (Q92843 whole entry): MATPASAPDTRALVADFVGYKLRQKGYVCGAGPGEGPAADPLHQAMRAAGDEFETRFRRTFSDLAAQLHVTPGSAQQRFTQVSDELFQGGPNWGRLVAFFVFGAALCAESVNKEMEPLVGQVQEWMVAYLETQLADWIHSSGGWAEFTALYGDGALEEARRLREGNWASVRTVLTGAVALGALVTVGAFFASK
# Sequence of BCL-2 (P10415 whole entry): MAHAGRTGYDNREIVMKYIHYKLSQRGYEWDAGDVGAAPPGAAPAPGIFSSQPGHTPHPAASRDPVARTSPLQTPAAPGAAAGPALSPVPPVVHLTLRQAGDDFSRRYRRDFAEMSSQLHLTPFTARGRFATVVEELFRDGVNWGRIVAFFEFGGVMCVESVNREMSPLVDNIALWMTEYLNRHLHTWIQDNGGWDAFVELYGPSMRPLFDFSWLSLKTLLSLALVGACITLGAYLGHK
# Sequence of Mcl-1 (Q07820 whole entry): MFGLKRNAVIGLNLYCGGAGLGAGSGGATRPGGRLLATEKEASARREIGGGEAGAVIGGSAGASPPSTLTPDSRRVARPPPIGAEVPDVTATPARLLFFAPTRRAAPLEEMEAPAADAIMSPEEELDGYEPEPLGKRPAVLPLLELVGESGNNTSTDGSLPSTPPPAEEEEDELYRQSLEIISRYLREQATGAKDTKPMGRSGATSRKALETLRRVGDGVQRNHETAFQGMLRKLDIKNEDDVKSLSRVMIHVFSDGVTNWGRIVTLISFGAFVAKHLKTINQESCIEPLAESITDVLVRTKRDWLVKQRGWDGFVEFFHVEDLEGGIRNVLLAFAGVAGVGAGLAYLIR
smiles,measurement,setting,value
CC1(C)CCC(c2ccc(Cl)cc2)=C(CN2CCN(c3ccc(C(=O)NS(=O)(=O)c4ccc(N[C@H](CCN5CCOCC5)CSc5ccccc5)c(S(=O)(=O)C(F)(F)F)c4)cc3)CC2)C1 [ABT-263],"tumor response, small-cell lung cancer xenograft models",[1],complete tumor regressions
same,IC50,SCLC H146 cell line,110 nM
same,"tumor response, acute lymphoblastic leukemia xenograft models",[2],complete tumor regressions
same,Ki,Bcl-w,≤ 1 nM
same,TGI,H345 xenograft,80%
same,treated tumors indicating at least a 50% reduction in tumor volume,H345 xenograft,20%
same,number of circulating platelets,circulating platelets,"rapid, concentration-dependent decrease"
CC1(C)CCC(CN2CCN(c3ccc(C(=O)NS(=O)(=O)c4ccc(NCC5CCOCC5)c([N+](=O)[O-])c4)c(Oc4cnc5[nH]ccc5c4)c3)CC2)=C(c2ccc(Cl)cc2)C1 [ABT-199],activity to Mcl-1,Mcl-1,no activity
same,EC50,RS4;11 cells,8 nM
same,EC50,CLL,3 nM
same,maximal tumor growth inhibition,RS4; 11 xenografts,95%
same,tumor growth delay,RS4; 11 xenografts,152%
CN(C)CC[C@H](CSc1ccccc1)Nc1ccc(S(=O)(=O)NC(=O)c2ccc(N3CCN(Cc4ccccc4-c4ccc(Cl)cc4)CC3)cc2)cc1[N+](=O)[O-] [ABT-737],aqueous solubility,[3],low aqueous solubility
same,oral bioavailability,[4],not orally bioavailable
"COC1(C)CCC(c2ccc(Cl)cc2)=C(CN2CCN(c3ccc(C(=O)NS(=O)(=O)c4ccc(NC[C@H]5COCCO5)c([N+](=O)[O-])c4)c(N4CCCOc5nc6[nH]ccc6cc54)c3)CC2)C1 (stereo partly drawn) [Example 77, 4-(4-[[2-(4-chlorophenyl)-5-methoxy-5-methylcyclohex-1-en-1-yl]methyl]piperazin-1-yl)-N-(4-[[(2S)-1,4-dioxan-2-ylmethyl]amino]-3-nitrobenzenesulfonyl)-2-[14-oxa-2,4,10-triazatricyclo[7.5.0.0[3,7]]tetradeca-1(9),2,5,7-tetraen-10-yl]benzamide]",IC50,BCL-2,0.08 nM
same,IC50,[5],0.8 nM
